“And” between values parts separate entries of the source, which are not always exact repeats. Equal values may be shown once. Read-outs that look alike come from different tables or passages of the source.
Experiments:
[1] = Pharmacokinetic study, IV administration in male CD-1 mice; assay type: in vivo; conditions: for AUCExtra / AUC0-inf / AUC0-last / AUCall / C0 / Cl / MRT0-last / T½ / Vd / AUC / AUC(0-t) / clearance / concentration at 0.08 h / concentration at 0.25 h / concentration at 1 h / concentration at 3 h / concentration at 5 h / concentration at 8 h / concentration at 24 h / MRT last / half-life: plasma; for half-life: read-out: T½ (converted)
[2] = Pharmacokinetic study, IP administration in male CD-1 mice; assay type: in vivo
[3] = Mouse Liver Microsome stability assay; assay type: in vitro ADME; conditions: mouse liver microsomes
[4] = IV 2.0 mg/kg, individual mice M1-M3, 2 mg/kg
[5] = male, CD-1, mouse, iv, 2 mg/kg, Mean
[6] = male, CD-1, mouse, iv, 2 mg/kg, Mean, read-out: AUC0-inf
[7] = male, CD-1, mouse, iv, 2 mg/kg, Mean, read-out: C0
[8] = male, CD-1, mouse, iv, 2 mg/kg, Mean, read-out: MRT0-last
[9] = male, CD-1, mouse, iv, 2 mg/kg, Mean, read-out: Vd
[10] = male, CD-1, mouse, iv, 2 mg/kg, individual mice M1-M3
[11] = male, CD-1, mouse, iv, 2 mg/kg, individual mice M1-M3, read-out: C0
[12] = male, CD-1, mouse, iv, 2 mg/kg, individual mice M1-M3, read-out: MRT0-last
[13] = male, CD-1, mouse, iv, 2 mg/kg, individual mice M1-M3, read-out: Vd
[14] = IP 2.0 mg/kg, individual mice M1-M3
[15] = IP 2.0 mg/kg, individual mice M1-M3, 2 mg/kg
[16] = IP 2.0 mg/kg, plasma, individual mice M1-M3, 2 mg/kg
[17] = male, CD-1, mouse, plasma, ip, 2 mg/kg, Mean
[18] = male, CD-1, mouse, plasma, ip, 2 mg/kg, Mean, read-out: AUC0-inf
[19] = male, CD-1, mouse, plasma, ip, 2 mg/kg, Mean, read-out: Cmax
[20] = male, CD-1, mouse, plasma, ip, 2 mg/kg, Mean, read-out: MRT0-last
[21] = male, CD-1, mouse, plasma, ip, 2 mg/kg, individual mice M1-M3
[22] = male, CD-1, mouse, plasma, ip, 2 mg/kg, individual mice M1-M3, read-out: AUC0-inf
[23] = male, CD-1, mouse, plasma, ip, 2 mg/kg, individual mice M1-M3, read-out: Cmax
[24] = male, CD-1, mouse, IP 2.0 mg/kg, plasma, individual mice M1-M3

## COc1ccc(-c2cccc(F)c2)cc1Nc1ncnc2[nH]nc(-c3cc[nH]n3)c12 [8168B]
[1]; [4]
  Plasma Concentration at 0.08 h: 53.28 ng/mL and 64.54 ng/mL
  Plasma Concentration at 0.25 h: 29.14 ng/mL and 34.06 ng/mL
  Plasma Concentration at 1.00 h: 22.71 ng/mL and 12.93 ng/mL
  Plasma Concentration at 3.00 h: 11.36 ng/mL and 8.08 ng/mL
  Plasma Concentration at 5.00 h: 7.57 ng/mL and 6.55 ng/mL
  Plasma Concentration at 8.00 h: 7.32 ng/mL and 9.38 ng/mL
  Plasma Concentration at 24.00 h: 5.33 ng/mL and 3.54 ng/mL
  AUC0-inf: 3147.06 ng·h/mL and 487.06 ng·h/mL and 282.28 ng·h/mL
  AUC0-last: 205.32 ng·h/mL and 185.37 ng·h/mL
  AUCExtra: 94.18% and 57.85% and 34.33%
  AUCall: 205.32 ng·h/mL and 185.37 ng·h/mL
  C0: 71.91 ng/mL and 88.67 ng/mL
  Cl: 10.59 mL/min/kg and 68.44 mL/min/kg and 118.09 mL/min/kg
  MRT0-last: 542 min
  T½: 302.57 h and 36.64 h and 18.98 h
  Vd: 217.05 L/kg and 193.96 L/kg
[1]; IV 2.0 mg/kg, Mean
  AUCExtra: 46.09%
[1]; [5]
  AUC: 191 ng·h/mL
  AUC(0-t): 191 ng·h/mL
  clearance: 93.3 mL/min/kg
  concentration at 0.08 h: 58.9 ng/mL
  concentration at 0.25 h: 31.6 ng/mL
  concentration at 1 h: 17.8 ng/mL
  concentration at 3 h: 9.72 ng/mL
  concentration at 5 h: 7.06 ng/mL
  concentration at 8 h: 8.35 ng/mL
  concentration at 24 h: 4.44 ng/mL
  half-life: 1670 min
[1]; [6]
  AUC0-inf: 385 ng·h/mL
[1]; [7]
  C0: 77.7 ng/mL
[1]; [8]
  MRT last: 568 min
[1]; [9]
  Vd: 206 L/kg
[1]; [10]
  AUC: 183 ng·h/mL
  AUC(0-t): 183 ng·h/mL
  concentration at 0.08 h: 55.1 ng/mL
  concentration at 0.25 h: 31.9 ng/mL
  concentration at 1 h: 12.3 ng/mL
  concentration at 3 h: 6.96 ng/mL
  concentration at 5 h: 7.32 ng/mL
  concentration at 8 h: 6.02 ng/mL
  concentration at 24 h: 6.79 ng/mL
[1]; [11]
  C0: 72.4 ng/mL
[1]; [12]
  MRT last: 618 min
[1]; [13]
  Vd: 277 L/kg
[2]; IP 2.0 mg/kg, Mean
  Plasma Concentration at 5.00 h: BLQ
  Plasma Concentration at 8.00 h: BLQ
  Plasma Concentration at 24.00 h: BLQ
[2]; [14]
  Plasma Concentration at 5.00 h: BLQ
  Plasma Concentration at 8.00 h: BLQ
  Plasma Concentration at 24.00 h: BLQ
[2]; [15]
  Plasma Concentration at 0.25 h: 189.54 ng/mL and 198.56 ng/mL
  Plasma Concentration at 1.00 h: 69.73 ng/mL and 76.68 ng/mL
  Plasma Concentration at 3.00 h: 4.17 ng/mL and 2.33 ng/mL
[2]; IP 2.0 mg/kg, plasma, Mean
  AUCExtra: 1.11%
[2]; [16]
  AUC0-inf: 163.10 ng·h/mL and 164.87 ng·h/mL
  AUC0-last: 160.10 ng·h/mL and 163.46 ng·h/mL
  AUCExtra: 0.63% and 1.84% and 0.86%
  AUCall: 160.10 ng·h/mL and 163.46 ng·h/mL
  Cmax: 189.54 ng/mL and 198.56 ng/mL
  Half-life (T½): 30 min and 25.2 min
  MRT0-last: 48.6 min
[2]; [17]
  AUC: 175 ng·h/mL
  AUC(0-t): 175 ng·h/mL
  concentration at 0.25 h: 210 ng/mL
  concentration at 1 h: 82.3 ng/mL
  concentration at 3 h: 2.92 ng/mL
[2]; [18]
  AUC0-inf: 177 ng·h/mL
[2]; [19]
  Cmax: 210 ng/mL
[2]; [20]
  MRT last: 46.8 min
[2]; male, CD-1, mouse, plasma, ip, 2 mg/kg, Mean, read-out: Oral T½ (converted)
  Half-life (T½): 26.4 min
[2]; [21]
  AUC: 203 ng·h/mL
  AUC(0-t): 203 ng·h/mL
  concentration at 0.25 h: 242 ng/mL
  concentration at 1 h: 101 ng/mL
  concentration at 3 h: 2.25 ng/mL
[2]; [22]
  AUC0-inf: 204 ng·h/mL
[2]; [23]
  Cmax: 242 ng/mL
[2]; male, CD-1, mouse, plasma, ip, 2 mg/kg, individual mice M1-M3, read-out: MRT0-last
  MRT last: 45.6 min
[2]; male, CD-1, mouse, plasma, ip, 2 mg/kg, individual mice M1-M3, read-out: Oral T½ (converted)
  Half-life (T½): 24 min
[2]; [24]
  Tmax: 15 min
[3]
  WuXi Microsomal stability (Mouse Extraction Ratio): <0.3

## COc1ccc(-c2ccc(F)cc2)cc1Nc1ncnc2[nH]nc(-c3cc[nH]n3)c12 [8168C]
[1]; IV 2.0 mg/kg, Mean
  Plasma Concentration at 24.00 h: BLQ
  AUCExtra: 1.68%
[1]; IV 2.0 mg/kg, individual mice M1-M3
  Plasma Concentration at 24.00 h: BLQ
[1]; [4]
  Plasma Concentration at 0.08 h: 643.79 ng/mL and 668.53 ng/mL
  Plasma Concentration at 0.25 h: 361.85 ng/mL and 533.91 ng/mL
  Plasma Concentration at 1.00 h: 124.19 ng/mL and 132.77 ng/mL
  Plasma Concentration at 3.00 h: 16.88 ng/mL and 24.59 ng/mL
  Plasma Concentration at 5.00 h: 4.53 ng/mL and 8.17 ng/mL and 9.69 ng/mL
  Plasma Concentration at 8.00 h: 1.79 ng/mL and BLQ and 4.14 ng/mL
  AUC0-inf: 451.15 ng·h/mL and 566.58 ng·h/mL
  AUC0-last: 441.82 ng·h/mL and 554.77 ng·h/mL
  AUCExtra: 0.88% and 2.07% and 2.08%
  AUCall: 441.82 ng·h/mL and 554.77 ng·h/mL
  C0: 857.24 ng/mL and 747.58 ng/mL
  Cl: 73.89 mL/min/kg and 58.83 mL/min/kg
  MRT0-last: 52.2 min and 65.4 min
  T½: 1.70 h and 0.79 h and 1.98 h
  Vd: 5.06 L/kg and 10.07 L/kg
[1]; [5]
  AUC: 497 ng·h/mL
  AUC(0-t): 497 ng·h/mL
  clearance: 66.5 mL/min/kg
  concentration at 0.08 h: 638 ng/mL
  concentration at 0.25 h: 426 ng/mL
  concentration at 1 h: 146 ng/mL
  concentration at 3 h: 18.6 ng/mL
  concentration at 5 h: 7.46 ng/mL
  concentration at 8 h: 2.97 ng/mL
  half-life: 89.4 min
[1]; [6]
  AUC0-inf: 506 ng·h/mL
[1]; [7]
  C0: 786 ng/mL
[1]; [8]
  MRT last: 57.6 min
[1]; [9]
  Vd: 8.32 L/kg
[1]; [10]
  AUC: 496 ng·h/mL
  AUC(0-t): 496 ng·h/mL
  clearance: 66.7 mL/min/kg
  concentration at 0.08 h: 601 ng/mL
  concentration at 0.25 h: 382 ng/mL
  concentration at 1 h: 181 ng/mL
  concentration at 3 h: 14.3 ng/mL
[1]; male, CD-1, mouse, iv, 2 mg/kg, individual mice M1-M3, read-out: AUC0-inf
  AUC0-inf: 500 ng·h/mL
[1]; [11]
  C0: 754 ng/mL
[1]; [12]
  MRT last: 56.4 min
[1]; [13]
  Vd: 9.82 L/kg
[2]; IP 2.0 mg/kg, Mean
  Plasma Concentration at 5.00 h: BLQ
  Plasma Concentration at 8.00 h: BLQ
  Plasma Concentration at 24.00 h: BLQ
[2]; [14]
  Plasma Concentration at 8.00 h: BLQ
  Plasma Concentration at 24.00 h: BLQ
[2]; [15]
  Plasma Concentration at 0.25 h: 306.24 ng/mL and 169.92 ng/mL
  Plasma Concentration at 1.00 h: 69.88 ng/mL and 66.74 ng/mL
  Plasma Concentration at 3.00 h: 9.75 ng/mL and 2.05 ng/mL and BLQ
  Plasma Concentration at 5.00 h: BLQ
[2]; IP 2.0 mg/kg, plasma, Mean
  AUCExtra: 0.96%
[2]; [16]
  AUC0-inf: 197.83 ng·h/mL
  AUC0-last: 208.92 ng·h/mL and 196.69 ng·h/mL and 104.05 ng·h/mL
  AUCExtra: 1.35% and 0.57%
  AUCall: 208.92 ng·h/mL and 196.69 ng·h/mL and 104.05 ng·h/mL
  Cmax: 306.24 ng/mL and 169.92 ng/mL
  Half-life (T½): 47.4 min and 22.8 min
  MRT0-last: 63.6 min and 40.2 min and 30 min
[2]; male, CD-1, mouse, plasma, intraperitoneal, 2 mg/kg, IP 2.0 mg/kg, Mean, read-out: Oral T½ (converted)
  Half-life (T½): 35.4 min
[2]; [17]
  AUC: 170 ng·h/mL
  AUC(0-t): 170 ng·h/mL
  concentration at 0.25 h: 228 ng/mL
  concentration at 1 h: 73.9 ng/mL
  concentration at 3 h: 5.9 ng/mL
[2]; [18]
  AUC0-inf: 205 ng·h/mL
[2]; [19]
  Cmax: 228 ng/mL
[2]; [20]
  MRT last: 44.4 min
[2]; [21]
  concentration at 0.25 h: 207 ng/mL
  concentration at 1 h: 85.2 ng/mL
  concentration at 5 h: 2.52 ng/mL
[2]; [22]
  AUC0-inf: 212 ng·h/mL
[2]; [23]
  Cmax: 207 ng/mL
[2]; [24]
  Tmax: 15 min
[3]
  WuXi Microsomal stability (Mouse Extraction Ratio): 0.4

— patent publication US20190119284A1, “ErbB Inhibitors and Uses Thereof” (The Regents of the University of California, priority 2016, published 2019)
